In the NIST ThermoML archive (doi:10.1021/je060271a):

Conditions: 303.15 K, Liquid, Vibrating tube method

CCCCCCCC(=O)OCC(COC(=O)CCCCCCC)(COC(=O)CCCCCCC)COC(=O)CCCCCCC [pentaerythritol tetraoctanoate]
Conditions	mass density [kg/m3]
7240.6 kPa	959.8
7273.2 kPa	959.8
7299.8 kPa	960
7389.7 kPa	960
7422.6 kPa	959.9
7449.6 kPa	959.9
7483.3 kPa	960
7511.3 kPa	960
7544.9 kPa	960
7573.7 kPa	960.1
7608.5 kPa	960.1
7643.5 kPa	960.1
7673.8 kPa	960.1
7703.3 kPa	960.1
7739.3 kPa	960.2
7769.3 kPa	960.2
7806.2 kPa	960.1
7836.8 kPa	960.2
7874 kPa	960.2
7904.9 kPa	960.1
7943.2 kPa	960.2
8013.8 kPa	960.3
8160.1 kPa	960.4
8194.2 kPa	960.5
8236.1 kPa	960.4
8272 kPa	960.5
8310.6 kPa	960.5
8341.7 kPa	960.5
8372.2 kPa	960.5
8402.7 kPa	960.5
8428.6 kPa	960.5
8458.8 kPa	960.7
8489.8 kPa	960.6
8521.4 kPa	960.7
8548.1 kPa	960.7
8580.2 kPa	960.7
8612.1 kPa	960.7
8643.8 kPa	960.7
8676.1 kPa	960.8
8703.6 kPa	960.8
8736.1 kPa	960.7
8769.5 kPa	960.9
8802.3 kPa	960.8
8866 kPa	960.8
8901.6 kPa	960.9
8936.7 kPa	960.9
8961.2 kPa	960.8
8990.2 kPa	960.9
9019.5 kPa	960.9
9048.8 kPa	960.9
9078.2 kPa	961
9103.3 kPa	961
9132.9 kPa	961.1
9163.2 kPa	961
9193.9 kPa	961.1
9224.2 kPa	961
9250.4 kPa	961.1
9281.3 kPa	961
9371.4 kPa	961.1
9403.3 kPa	961.2
9435.5 kPa	961.1
9467.7 kPa	961.2
9500.5 kPa	961.2
9527.3 kPa	961.2
9559.2 kPa	961.2
9592.8 kPa	961.2
9618.8 kPa	961.3
9652.6 kPa	961.3
9687 kPa	961.4
9722.3 kPa	961.4
9750.6 kPa	961.4
9785.2 kPa	961.3
9821.4 kPa	961.4
9856.8 kPa	961.4
9893.5 kPa	961.5
9924.2 kPa	961.5
9961.2 kPa	961.5
9999 kPa	961.5
10037 kPa	961.6
10067 kPa	961.6
10092 kPa	961.6
10122 kPa	961.6
10152 kPa	961.6
10177 kPa	961.6
10208 kPa	961.5
10238 kPa	961.7
10270 kPa	961.6
10302 kPa	961.8
10334 kPa	961.7
10357 kPa	961.7
10380 kPa	961.8
10403 kPa	961.6
10423 kPa	961.7
10447 kPa	961.7
10471 kPa	961.7
10491 kPa	961.8
10514 kPa	961.8
10538 kPa	961.9
10562 kPa	961.9
10582 kPa	961.9
10607 kPa	961.9
10631 kPa	961.9
10656 kPa	961.9
10680 kPa	961.9
10702 kPa	962
10727 kPa	962
10751 kPa	961.9
10779 kPa	961.9
10801 kPa	961.9
10826 kPa	962
10852 kPa	962.1
10878 kPa	962.1
10899 kPa	962
10924 kPa	962.1
10950 kPa	962.1
10975 kPa	962.1
10996 kPa	962.2
11075 kPa	962.1
11103 kPa	962.2
11125 kPa	962.2
11152 kPa	962.2
11180 kPa	962.2
11202 kPa	962.2
11229 kPa	962.4
11257 kPa	962.2
11285 kPa	962.3
11313 kPa	962.3
11337 kPa	962.3
11365 kPa	962.4
11393 kPa	962.3
11422 kPa	962.3
11446 kPa	962.4
11475 kPa	962.3
11504 kPa	962.4
11533 kPa	962.4
11562 kPa	962.4
11587 kPa	962.5
11616 kPa	962.5
11645 kPa	962.6
11669 kPa	962.5
11699 kPa	962.6
11729 kPa	962.4
11760 kPa	962.6
11790 kPa	962.6
11816 kPa	962.6
11847 kPa	962.6
11878 kPa	962.7
11909 kPa	962.6
11935 kPa	962.6
11965 kPa	962.7
11996 kPa	962.7
12028 kPa	962.7
12059 kPa	962.7
12086 kPa	962.8
12118 kPa	962.8
12150 kPa	962.8
12183 kPa	962.8
12208 kPa	962.8
12241 kPa	962.9
12274 kPa	962.8
12307 kPa	962.8
12340 kPa	962.9
12368 kPa	963
12402 kPa	962.9
12436 kPa	963
12470 kPa	963.1
12499 kPa	963.1
12533 kPa	962.9
12568 kPa	963
12603 kPa	963
12633 kPa	963.1
12668 kPa	963.1
12704 kPa	963.1
12734 kPa	963.1
12770 kPa	963.2
12805 kPa	963.2
12841 kPa	963.2
12878 kPa	963.1
12916 kPa	963.2
12947 kPa	963.3
12985 kPa	963.3
13022 kPa	963.3
13059 kPa	963.3
13090 kPa	963.4
13128 kPa	963.3
13167 kPa	963.4
13200 kPa	963.3
13240 kPa	963.3
13279 kPa	963.6
13308 kPa	963.5
13346 kPa	963.4
13386 kPa	963.5
13427 kPa	963.6
13468 kPa	963.5
13501 kPa	963.7
13542 kPa	963.6
13577 kPa	963.5
13611 kPa	963.7
13693 kPa	963.7
13813 kPa	963.7
13941 kPa	963.8
13985 kPa	963.8
14067 kPa	964
14112 kPa	964
14142 kPa	964
14187 kPa	964
14240 kPa	964.1
14286 kPa	964.1
14332 kPa	964.1
14371 kPa	964.1
14417 kPa	964.1
14464 kPa	964.1
14512 kPa	964.2
14551 kPa	964.1
14598 kPa	964.1
14647 kPa	964.2
14697 kPa	964.3
14737 kPa	964.2
14787 kPa	964.4
14836 kPa	964.4
14887 kPa	964.3
14930 kPa	964.3
14981 kPa	964.5
15031 kPa	964.5
15083 kPa	964.5
15135 kPa	964.5
15179 kPa	964.6
15234 kPa	964.6
15288 kPa	964.5
15341 kPa	964.7
15388 kPa	964.7
15447 kPa	964.7
15495 kPa	964.8
15554 kPa	964.8
15616 kPa	964.9
15669 kPa	964.9
15728 kPa	964.9
15758 kPa	964.9
15786 kPa	964.9
15815 kPa	965
15840 kPa	964.9
15869 kPa	964.9
15894 kPa	964.9
15923 kPa	964.9
15952 kPa	965.1
15978 kPa	965
16008 kPa	965.1
16032 kPa	965.1
16062 kPa	965.2
16092 kPa	965.1
16117 kPa	965.2
16148 kPa	965.1
16173 kPa	965.1
16205 kPa	965.1
16230 kPa	965.1
16261 kPa	965.2
16288 kPa	965.2
16319 kPa	965.2
16349 kPa	965.2
16375 kPa	965.3
16407 kPa	965.4
16433 kPa	965.3
16465 kPa	965.2
16496 kPa	965.2
16523 kPa	965.3
16556 kPa	965.3
16586 kPa	965.4
16613 kPa	965.4
16645 kPa	965.4
16672 kPa	965.4
16704 kPa	965.3
16737 kPa	965.5
16764 kPa	965.4
16798 kPa	965.5
16825 kPa	965.4
16853 kPa	965.5
16875 kPa	965.6
16908 kPa	965.6
16952 kPa	965.6
16982 kPa	965.7
17016 kPa	965.6
17044 kPa	965.6
17078 kPa	965.6
17112 kPa	965.7
17141 kPa	965.7
17175 kPa	965.7
17209 kPa	965.7
17238 kPa	965.9
17272 kPa	965.8
17302 kPa	965.9
17339 kPa	965.8
17367 kPa	965.9
17402 kPa	965.8
17434 kPa	965.9
17468 kPa	965.9
17504 kPa	966
